Molecular target: Cyclin-dependent kinase 6 (CDK6) (Homo sapiens, UniProt Q00534)
Experiment: biochemical

Chain of Cyclin-dependent kinase 6 (CDK6) (Q00534 whole entry): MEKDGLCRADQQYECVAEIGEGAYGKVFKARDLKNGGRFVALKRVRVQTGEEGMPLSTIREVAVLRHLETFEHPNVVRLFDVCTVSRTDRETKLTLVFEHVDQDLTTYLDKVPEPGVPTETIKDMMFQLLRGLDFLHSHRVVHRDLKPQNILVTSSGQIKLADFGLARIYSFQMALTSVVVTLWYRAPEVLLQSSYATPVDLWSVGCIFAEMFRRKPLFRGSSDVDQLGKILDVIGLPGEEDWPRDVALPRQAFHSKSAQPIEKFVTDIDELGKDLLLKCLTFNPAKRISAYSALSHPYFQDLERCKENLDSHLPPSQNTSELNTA

Kd: 5.56 µM
SMILES: Cc1cc(F)c(C(=O)Nc2cccc(-c3nncn3C(C)C)n2)cc1-n1cnc(C2CC2)c1 [selonsertib]

Reference: publication PMC9204300, “Investigating the Mechanism of Inhibition of Cyclin-Dependent Kinase 6 Inhibitory Potential by Selonsertib: Newer Insights Into Drug Repurposing” (Frontiers in Oncology, 2022)
